Laboratory results published in patent US4511573A, “3-Substituted-2-(heteroaryl) indoles” (Ciba-Geigy Corporation, priority 1983, dated 1985).
Each block holds one compound with its values, some of them ahead of it.

What was measured:
thromboxane synthetase = target: T1, thromboxane synthetase (Homo sapiens, UniProt P24557); assay: in vitro inhibition of thromboxane synthetase (14C-arachidonic acid, TxB2/PGF2α+β ratio); format: biochemical; details: 30 minutes incubation
T1 construct: crude microsomal preparation of thromboxane synthetase from lysed human platelets; from tissue; host or cells: human platelets (lysed, crude microsomal preparation)
T1 sequence (P24557 1-533): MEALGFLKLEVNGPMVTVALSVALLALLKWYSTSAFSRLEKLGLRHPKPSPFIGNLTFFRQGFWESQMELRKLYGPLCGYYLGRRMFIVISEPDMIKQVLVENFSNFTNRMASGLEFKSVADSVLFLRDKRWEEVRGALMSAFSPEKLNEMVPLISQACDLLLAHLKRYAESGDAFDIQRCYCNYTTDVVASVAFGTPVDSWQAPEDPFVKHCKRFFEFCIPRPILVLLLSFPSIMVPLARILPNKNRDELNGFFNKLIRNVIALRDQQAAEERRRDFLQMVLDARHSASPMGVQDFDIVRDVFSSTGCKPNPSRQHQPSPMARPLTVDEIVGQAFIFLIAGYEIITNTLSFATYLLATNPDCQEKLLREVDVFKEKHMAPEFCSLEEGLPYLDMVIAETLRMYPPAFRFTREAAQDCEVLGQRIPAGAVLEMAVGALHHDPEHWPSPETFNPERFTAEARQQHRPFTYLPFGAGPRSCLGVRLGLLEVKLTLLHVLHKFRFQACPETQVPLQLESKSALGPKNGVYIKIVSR
Experimental: Res. Comm. 74, 1432 (1977); the testing procedure is as follows:
^14 C-Arachiodonic acid is incubated with an exzyme consisting of solubilized and partially purified prostaglandin cyclo-oxygenase from sheep seminal vesicles and a crude microsomal preparation of thromboxane synthetase from lysed human platelets. The test compound (dissolved in buffer, or if necessary, in a small amount of ethanol) is added to the incubation medium. At the end of the incubation period (30 minutes), Prostaglandin E2 (PGE2) is reduced to a mixture of Prostaglandin F2 α and F2 β (PGF2α+β) by addition of sodium borohydride. The radioactive products and excess substrate are extracted into ethyl acetate; the extract is evaporated to dryness; the residue is dissolved in acetone, spotted on thin-layer plates and chromatographed in the solvent system toluene: acetone: glacial acetic acid (100 volumes: 100 volumes: 3 volumes). The radioactive zones are located; those corresponding to Thromboxane B2 (TxB2) and PGF2 α+β are transferred to liquid scintillation vials and counted. The ratio of counts for TxB2 /PGF2 α+β is calculated for each concentration of test compound and IC50 values are determined graphically as the concentration of test compound at which the ratio of T×B2 /[…] is reduced to 50% of the control value.

[1] = target: T2, prostaglandin cyclooxygenase (Ovis aries, UniProt P05979); assay: in vitro effect on prostaglandin cyclooxygenase (14C-arachidonic acid to PGE2); format: biochemical, sheep; details: read-out: IC50 for inhibition of cyclooxygenase
T2 construct: Lyophilized sheep seminal vesicle microsomes are utilized as the prostaglandin-synthesizing enzyme preparation; from tissue; host or cells: sheep seminal vesicle microsomes (lyophilized)
T2 sequence (P05979 25-600): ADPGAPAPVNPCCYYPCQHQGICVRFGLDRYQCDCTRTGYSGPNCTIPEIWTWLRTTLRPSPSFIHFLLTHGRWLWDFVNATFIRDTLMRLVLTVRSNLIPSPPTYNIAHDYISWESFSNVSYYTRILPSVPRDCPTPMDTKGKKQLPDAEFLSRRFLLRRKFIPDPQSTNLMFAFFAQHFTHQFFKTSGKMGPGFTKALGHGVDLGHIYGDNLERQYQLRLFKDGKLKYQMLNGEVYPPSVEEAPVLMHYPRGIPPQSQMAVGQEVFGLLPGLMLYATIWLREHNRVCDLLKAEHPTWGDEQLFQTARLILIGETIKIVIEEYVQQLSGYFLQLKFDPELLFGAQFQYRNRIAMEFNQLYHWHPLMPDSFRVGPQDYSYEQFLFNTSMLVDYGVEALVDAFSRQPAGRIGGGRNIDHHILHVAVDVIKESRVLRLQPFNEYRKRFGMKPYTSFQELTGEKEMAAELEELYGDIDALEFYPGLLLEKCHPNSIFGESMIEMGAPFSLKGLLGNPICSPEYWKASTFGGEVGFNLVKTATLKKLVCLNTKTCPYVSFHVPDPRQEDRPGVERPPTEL
Experimental: The in-vitro effect on prostaglandin cyclooxygenase is measured by a modification of the method of Takeguchi et al. described in Biochemistry 10, 2372 (1971); the testing procedure is as follows: Lyophilized sheep seminal vesicle microsomes are utilized as the prostaglandin-synthesizing enzyme preparation. The conversion of ^14 C-arachidonic acid to PGE2 is measured. Test compounds (dissolved in buffer, or if necessary, in a small amount of ethanol) are added to the incubation mixture. The prostaglandins are extracted and separated by thin-layer chromatography; the plates are scanned, the radioactive zones corresponding to PGE2 are transferred to liquid scintillation vials and counted for radioactivity. IC50 values for inhibition are determined graphically as the concentration of test compound causing a 50% reduction in the amount of PGE2 synthesized.

[2] = target: T3, prostacyclin (PGI2) synthetase (Bos taurus, UniProt Q29626); assay: in vitro effect on prostacyclin (PGI2) synthetase (6-keto-PGF1α/PGE2 ratio); format: biochemical, bovine; details: pH 7.5, 30 minutes at 37° C., read-out: IC50 for inhibition of prostacyclin synthetase
T3 construct: crude PGI2 synthetase in the form of a microsomal fraction of bovine aorta; from tissue; host or cells: bovine aorta (microsomal fraction)
T3 sequence (Q29626 1-500): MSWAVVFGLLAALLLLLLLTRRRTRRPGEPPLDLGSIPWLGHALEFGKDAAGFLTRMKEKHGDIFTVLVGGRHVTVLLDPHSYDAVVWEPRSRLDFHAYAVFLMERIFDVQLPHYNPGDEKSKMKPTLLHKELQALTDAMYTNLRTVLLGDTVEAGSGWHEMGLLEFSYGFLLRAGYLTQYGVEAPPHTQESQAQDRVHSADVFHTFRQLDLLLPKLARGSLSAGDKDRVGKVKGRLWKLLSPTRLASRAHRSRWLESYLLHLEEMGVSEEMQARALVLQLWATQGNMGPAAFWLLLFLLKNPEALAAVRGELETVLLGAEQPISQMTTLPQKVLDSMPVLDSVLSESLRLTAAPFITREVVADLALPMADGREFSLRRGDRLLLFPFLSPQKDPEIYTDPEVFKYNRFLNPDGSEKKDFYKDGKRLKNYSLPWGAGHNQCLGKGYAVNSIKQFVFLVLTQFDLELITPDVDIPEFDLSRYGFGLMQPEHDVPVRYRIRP
Experimental: The in-vitro effect on prostacyclin (PGI2) synthetase is measured analogous to the method of Sun et al., Prostaglandins 14, 1055 (1977);
The testing procedure is as follows:
^14 C-Arachiodonic acid is incubated with an enzyme mixture consisting of solubilized and partially purified prostaglandin cyclo-oxygenase from sheep seminal vesicles and crude PGI2 synthetase in the form of a microsomal fraction of bovine aorta.
Test compound (dissolved in buffer, or if necessary, in a small amount of ethanol) is placed in the incubation medium. The reaction mixture is incubated in 100 mM Tris HCl (pH 7.5) for 30 minutes at 37° C., acidified to pH 3 and extracted into ethyl acetate. The extract is evaporated to dryness; the residue is dissolved in acetone, spotted on thin-layer plates and chromatographed in a solvent system described by Sun et al.. The radioactive zones are located with a scanner; those corresponding to 6-keto-PGF1 α(a stable end product of prostacyclin biotransformation) and PGE2 are transferred to liquid scintillation vials and counted. The ratio of counts for 6-keto-PGF1 α/PGE2 is calculated for each concentration of test compound used. IC50 values for inhibition are determined graphically as the concentration of test compound at which the ratio of 6-keto-PGF1 α/PGE2 is reduced to 50% of the control value.

platelet aggregation = assay: inhibition of variously induced platelet aggregation; format: cell-based
thrombocytopenia = assay: inhibition of variously induced thrombocytopenia; details: in vivo
bleeding time = assay: prolongation of bleeding time in the rat; format: in vivo; details: oral, about 10 mg/kg
Text: Experimentally, prolongation of bleeding time in the rat is indicative of a beneficial antithrombotic effect.

thromboxane B2 = assay: reduction of plasma levels of thromboxane in vivo in rats (ionophore A23187, radioimmunoassay of thromboxane B2); details: rat, oral dose 0.10 mg/kg
Experimental: (§1) The inhibition of the synthesis and the reduction of plasma levels of thromboxane is determined in vivo on administration to rats in the following manner (as adapted from the procedures described by Tai et al. in Anal. Biochem. 87:343, 1978 and by Salmon in Prostaglandins 15:383, 1978):
(§2) Rats are dosed with vehicle or test drug and injected intravenously with ionophore A23187 (0.5 mg/kg) two hours later. Blood is collected for analysis 2 minutes after the inonophore injection. A single aliquot of each plasma sample is assayed for thromboxane B2 and another aliquot for 6-keto-PGF1 α, the stable metabolites of thromboxane A2 and prostacyclin (PGI2) respectively, by radioimmunoassay.

prostacyclin = assay: plasma level of prostacyclin in vivo in rats (ionophore A23187, radioimmunoassay of 6-keto-PGF1α); details: rat, oral dose 0.10 mg/kg
Experimental: as §1, §2

IC50 (thromboxane synthetase): 2.2 nM | IC50 [1]: ~100000 nM | IC50 [2]: ~100000 nM
Structure (SMILES): Cn1c(-c2cccnc2)c(CCCCCC(=O)O)c2ccccc21 [3-(5-carboxypentyl)-1-methyl-2-(3-pyridyl)indole]
inhibition of variously induced platelet aggregation (platelet aggregation): inhibits | inhibition of variously induced thrombocytopenia (thrombocytopenia): inhibits

IC50 (thromboxane synthetase): ~1.7 nM
Structure (SMILES): O=C(O)CCCCCc1c(-c2cccnc2)[nH]c2ccccc12 [3-(5-carboxypentyl)-2-(3-pyridyl)indole]
prolongation of bleeding time (bleeding time): prolongs bleeding time

Structure (SMILES): Cn1c(-c2cccnc2)c(CCCCCC(=O)O)c2cc(Cl)ccc21 [3-(5-carboxypentyl)-5-chloro-1-methyl-2-(3-pyridyl)indole]
decrease of plasma concentration of thromboxane B2 (thromboxane B2): over 50% | increase in the plasma level of prostacyclin (prostacyclin): approximately 8 fold

IC50 (thromboxane synthetase): ~2 nM
Structure (SMILES): O=C(O)CCCCCc1c(-c2cccnc2)[nH]c2ccc(Cl)cc12 [3-(5-carboxypentyl)-5-chloro-2-(3-pyridyl)indole]
